Source: patent US12594227B2, “Tetrapeptide and compositions comprising tetrapeptides” (THE BOOTS COMPANY PLC, priority 2020, dated 2026)
The star is where a group is joined. Palmitoyl = CCCCCCCCCCCCCCCC(=O)*

Columns and labels:
[1] = system: CSPG2; experiment: LC-MS/MS relative protein abundance in secretome/matrisome of HDFs: CSPG2; format: cell-based, human; conditions: 8 ppm peptide, seven-day culture
Protocol: (§1) Following incubation with the peptides, liquid chromatography tandem mass spectrometry (LC-MS/MS) was used to quantify the relative abundance differences between proteins identified in the secretome/matrisome, versus an untreated control. HDFs from a donor, plated at 50,000 cells per well, were cultured with either peptide dissolved in cell culture media to achieve a final concentration of 8 ppm or with media without any peptide as a negative control. Treated and control cells were tested in triplicate. The cells were cultured as normal for five days in serum-supplemented media and then for a further two days in serum-free media (seven-day culture in total). The cell media containing the secretome (the proteins secreted by the cell) and the ECM, decellularized by incubation with EDTA (ethylenediaminetetraacetic acid), containing the matrisome (the collection of ECM associated proteins) were collected. The combined secretome and the matrisome compartments were subsequently analysed by LC-MS/MS using the following protocol.
(§2) Proteins were denatured (in urea), reduced (in dithiothreitol) and mechanically disassociated (using ultrasonication) prior to overnight digestion with trypsin (SMART Digest™ trypsin kit; Thermo Fisher). After digestion, samples were cleaned of contaminants up by removal of organic molecules and surfactants using biphasic extraction and desalted using OLIGO™ R3 Reversed Phase Resin (Thermo Fisher).
(§3) Samples (200 ng) were ran on an UltiMate® 3000 Rapid Separation Liquid Chromatographer coupled to a Q Exactive™ Hybrid Quadrupole-Orbitrap™ Mass Spectrometer for 90-minutes per sample run. Spectral data was searched again the Uniprot Human proteome database using Mascot v2.5.1. Subsequent protein identification and data-dependent quantification was performed using Progenesis QI. Normalised protein abundances were compared between each peptide treatment and control. Statistical analysis was performed within Progenesis QI using a between sample ANOVA.
(§4) The mass spectrometry data for each peptide is shown below in table 3 and FIG. 1. […] These protein families were as follows: proteoglycans, UV DNA repair proteins, basement membrane protein and cell-adhesion proteins; functional protein families with a potentially important role in dermal repair and remodelling.
(§5) The results of the above mass spectrometry experiments wherein a range of tetrapeptides are applied to HDFs to elicit a response in the expression of dermal extracellular proteins are provided in table 3 below. The protein family which the protein belongs to is also shown. Mass spectrometry results using peptide sequences, according to the invention (column 1) and not according to the present invention (columns 2, 3 and 4), are also presented within the table for comparison.

[2] = system: RAD23A; experiment: LC-MS/MS relative protein abundance in secretome/matrisome of HDFs: RAD23A; format: cell-based, human; conditions: 8 ppm peptide, seven-day culture
Protocol: as §1, §2, §3, §4, §5

[3] = system: LAMB2; experiment: LC-MS/MS relative protein abundance in secretome/matrisome of HDFs: LAMB2; format: cell-based, human; conditions: 8 ppm peptide, seven-day culture
Protocol: as §1, §2, §3, §4, §5

[4] = system: NID1; experiment: LC-MS/MS relative protein abundance in secretome/matrisome of HDFs: NID1; format: cell-based, human; conditions: 8 ppm peptide, seven-day culture
Protocol: as §1, §2, §3, §4, §5

[5] = system: CDH2; experiment: LC-MS/MS relative protein abundance in secretome/matrisome of HDFs: CDH2; format: cell-based, human; conditions: 8 ppm peptide, seven-day culture
Protocol: as §1, §2, §3, §4, §5

[6] = system: LGALS3; experiment: LC-MS/MS relative protein abundance in secretome/matrisome of HDFs: LGALS3; format: cell-based, human; conditions: 8 ppm peptide, seven-day culture
Protocol: as §1, §2, §3, §4, §5

[7] = system: Collagen 1 (PIP); experiment: ELISA assay of collagen I (via PIP) in culture supernatant of human dermal fibroblasts; format: cell-based; conditions: 5 ppm peptide; normal human dermal fibroblasts; 72 hours; ELISA weighted to viable cells
Protocol: (§6) An ELISA is an immunological assay commonly used to measure presence and abundance of a specific proteins (antibodies, antigens, proteins and glycoproteins) in biological samples. In this case ELISAs are being used to quantify the expression of dermal extracellular proteins collagen-1, decorin, and fibronectin. The quantity of collagen I is evaluated via the quantity of PIP (“carboxU-terminal pro-peptide of procollagen type I”) which is a peptide fragment resulting from the enzymatic degradation of procollagen present outside the fibroblast in the culture supernatant medium. […]
(§7) Normal human dermal fibroblasts cells (HDFs) were cultured in contact with the tetrapeptides of the present invention, or composition without the peptide (negative control), for 72 hours. Thereafter the cultured supernatants were removed, and the quantity of dermal extracellular proteins determined using an ELISA assay for the protein of interest. For the ELISA quantification, cell viability was calculated using Hoechst staining allowing the quantity of dermal proteins to be weighted to the number of viable cells.
The quantity of collagen I is evaluated using the quantity of PIP (“carboxU-terminal pro-peptide of procollagen type I”) which is a peptide fragment resulting from the enzymatic degradation of procollagen present outside the fibroblast in the culture supernatant medium. […]

[8] = system: Fibronectin; experiment: ELISA assay of fibronectin in culture supernatant of human dermal fibroblasts; format: cell-based; conditions: 5 ppm peptide; normal human dermal fibroblasts; 72 hours; ELISA weighted to viable cells
Protocol: as §6, §7
(§8) The effect of the QTAV tetrapeptide on ECM protein expression by fibroblasts as measured by ELISA (column 1) versus tetrapeptide not conforming to the QTAV structure (column 2) are presented in the table below (table 1). Results are expressed as % increase versus the negative control.

[9] = system: Decorin; experiment: ELISA assay of decorin in culture supernatant of human dermal fibroblasts; format: cell-based; conditions: 5 ppm peptide; normal human dermal fibroblasts; 72 hours; ELISA weighted to viable cells
Protocol: as §6, §7, §8

[10] = system: Fibrillin-1; experiment: Immunofluorescence of Fibrillin-1 fibre abundance in primary human dermal fibroblasts; format: cell-based; conditions: HDF cells, 5 days
Protocol: Immunofluorescence relies on the use of antibodies to label a specific protein with a fluorescent dye such as fluorescein isothiocyanate (FITC). In the following experiments, indirect immunofluorescence is used where a primary antibody first recognises and attaches to the specific protein, in this case fibrillin-1, and then a secondary antibody conjugated with FITC directed against the primary antibody is used for detection.
For all experiments, the control liquid stock was prepared by dissolving the powdered peptides in DMSO (Dimethyl Sulfoxide solvent). Peptide powders were dissolved in DMSO at recommended part per million concentrations and then further diluted in the cell culture medium and combined to obtain the desired peptide ratio.
Fibrillin-1 expression was determined using immunofluorescence. Primary human dermal fibroblast (I-IDF) cells were purchased from Promo Cell and came from a donor. […]
The antibody binding to Fibrillin-1 fibres was visualised using a Nikon Eclipse 100 microscope fluorescence setting using an excitation lens for fluorescein isothiocyanate (FITC). […] ImageJ software was used to quantify the Fibrillin-1 fibre abundance and coverage in each image using a threshold of 235 measuring the fibre density.
Results are expressed as a percentage increase in fibrillin abundance compared to untreated control. […]

[11] = system: proteoglycans, UV DNA repair proteins, basement membrane protein and cell-adhesion proteins; experiment: LC-MS/MS protein families overview (bubble plot FIG. 1) in HDFs; format: cell-based, human; conditions: 8 ppm peptide, result in words
Protocol: as §1, with “protocol. […]” for “protocol.”
Samples (200 ng) were ran on an UltiMate® 3000 Rapid Separation Liquid Chromatographer coupled to a Q Exactive™ Hybrid Quadrupole-Orbitrap™ Mass Spectrometer for 90-minutes per sample run. […] Subsequent protein identification and data-dependent quantification was performed using Progenesis QI. […]

Substance: Pal-GPSG-OH
- CSPG2 (Proteoglycans) protein enhanced versus untreated control [1]: 20%
- RAD23A (UV DNA repair) protein enhanced versus untreated control [2]: 51%
- LAMB2 (Basement membrane) protein enhanced versus untreated control [3]: 25%
- NID1 (Basement membrane) protein enhanced versus untreated control [4]: 28%
- CDH2 (Cell adhesion) protein enhanced versus untreated control [5]: 85%
- LGALS3 (Cell adhesion) protein enhanced versus untreated control [6]: 2%

Substance: Pal-GYIL-OH
- Collagen 1 (PIP), % increase versus the negative control [7]: −4%
- Fibronectin, % increase versus the negative control [8]: −23%
- Decorin, % increase versus the negative control [9]: +2%
- Fibrillin-1, percentage increase in fibrillin abundance compared to untreated control ([10]; 10 ppm peptide): +3%

Substance: Pal-LSPD-OH
- CSPG2 (Proteoglycans) protein enhanced versus untreated control [1]: 5%
- RAD23A (UV DNA repair) protein enhanced versus untreated control [2]: 5%
- LAMB2 (Basement membrane) protein enhanced versus untreated control [3]: 40%
- NID1 (Basement membrane) protein enhanced versus untreated control [4]: 27%
- CDH2 (Cell adhesion) protein enhanced versus untreated control [5]: 39%
- LGALS3 (Cell adhesion) protein enhanced versus untreated control [6]: 5%

Substance: Pal-LSPG-OH
- CSPG2 (Proteoglycans) protein enhanced versus untreated control [1]: <1%
- RAD23A (UV DNA repair) protein enhanced versus untreated control [2]: 94%
- LAMB2 (Basement membrane) protein enhanced versus untreated control [3]: 22%
- NID1 (Basement membrane) protein enhanced versus untreated control [4]: 6.60%^
- CDH2 (Cell adhesion) protein enhanced versus untreated control [5]: 10%
- LGALS3 (Cell adhesion) protein enhanced versus untreated control [6]: 24%

Substance: Pal-QTAV-OH (Palmitoyl-QTAV-OH; SMILES CCCCCCCCCCCCCCCC(=O)N[C@@H](CCC(N)=O)C(=O)N[C@H](C(=O)N[C@@H](C)C(=O)N[C@H](C(=O)O)C(C)C)[C@@H](C)O) [palmitoyl tetrapeptide Gln-Thr-Ala-Val with free C-terminal OH, according to the invention]
- Collagen 1 (PIP), % increase versus the negative control [7]: +59%
- Fibronectin, % increase versus the negative control [8]: +87%
- Decorin, % increase versus the negative control [9]: +33%
- Fibrillin-1, percentage increase in fibrillin abundance compared to untreated control ([10]; 12.5 ppm peptide): +84%
- CSPG2 (Proteoglycans) protein enhanced versus untreated control [1]: 31%
- RAD23A (UV DNA repair) protein enhanced versus untreated control [2]: 230%
- LAMB2 (Basement membrane) protein enhanced versus untreated control [3]: 27%
- NID1 (Basement membrane) protein enhanced versus untreated control [4]: 32%
- CDH2 (Cell adhesion) protein enhanced versus untreated control [5]: 69%
- LGALS3 (Cell adhesion) protein enhanced versus untreated control [6]: 32%
- enhancement of protein families (proteoglycans, UV DNA repair proteins, basement membrane proteins, cell adhesion proteins) ([11]; FIG. 1 bubble plot): the only sequence to significantly enhance
- protein synthesis in comparison to the control ([11]; HDFs, LC-MS/MS): overall enhancement of protein synthesis
